These results are taken from US5767142A, “Trisbenzimidazoles useful as topoisomerase I inhibitors” (Rutgers, The State University of New Jersey, priority 1996, dated 1998).

Molecules are shown by their SMILES. Converted amounts (≈) assume the structure as drawn. “Also recorded” adds a separate entry of the source. Like-named read-outs stand apart in the source and are kept apart here.

The target in data set [1] is T1, calf thymus topoisomerase I (Bos taurus, UniProt A0AAA9TV68).
T1 construct: plasmid YEpG DNA cleavage assay
T1 sequence (A0AAA9TV68 2-769): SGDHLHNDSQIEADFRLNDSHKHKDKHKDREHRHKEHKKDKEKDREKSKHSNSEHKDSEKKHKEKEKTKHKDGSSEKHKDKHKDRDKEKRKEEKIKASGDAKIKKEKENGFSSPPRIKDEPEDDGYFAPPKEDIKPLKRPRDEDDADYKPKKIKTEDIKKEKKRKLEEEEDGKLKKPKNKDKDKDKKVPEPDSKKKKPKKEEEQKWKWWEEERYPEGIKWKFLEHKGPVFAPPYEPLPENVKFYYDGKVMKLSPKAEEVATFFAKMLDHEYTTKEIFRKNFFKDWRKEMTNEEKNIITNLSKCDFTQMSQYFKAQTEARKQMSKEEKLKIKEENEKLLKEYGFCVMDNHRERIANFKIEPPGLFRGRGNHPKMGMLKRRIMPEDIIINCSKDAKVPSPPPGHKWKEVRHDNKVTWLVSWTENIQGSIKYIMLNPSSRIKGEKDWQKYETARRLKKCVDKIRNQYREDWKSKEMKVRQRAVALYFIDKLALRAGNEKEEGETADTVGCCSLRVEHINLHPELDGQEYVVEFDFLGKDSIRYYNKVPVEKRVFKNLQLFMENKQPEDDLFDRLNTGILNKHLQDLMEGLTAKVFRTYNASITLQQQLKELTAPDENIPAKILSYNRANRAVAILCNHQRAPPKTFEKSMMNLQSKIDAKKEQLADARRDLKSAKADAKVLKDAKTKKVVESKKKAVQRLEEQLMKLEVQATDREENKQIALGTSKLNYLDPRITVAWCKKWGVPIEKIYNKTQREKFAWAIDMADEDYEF
Put plainly: Topoisomerase I-mediated DNA cleavage assay (calf thymus topoisomerase I, plasmid YEpG). The data set is classed as biochemical. An excerpt:
DNA topoisomerase I was purified from calf thymus gland as reported previously by B. D. Halligan et al., J. Biol. Chem., 260, 2475 (1985). Plasmid YEpG was also purified by the alkali lysis method followed by phenol deproteination and CsCl/ethidium isopycnic centrifugation as described by T. Mariatis et al., Molecular Cloning, A Laboratory Manual, Cold Spring Harbor Labs, NY (1982) at pages 149-185. The end-labeling of the plasmid was accomplished as previously described by L. F. Liu et al., J. Biol. Chem., 258, 15365 (1983). The cleavage assays were performed as previously reported by A. Y. Chen et al., Cancer Res., 53, 1332 (1993). Human topoisomerase was isolated as a recombinant fusion protein using a T7 expression system.
^b Topoisomerase I cleavage values are reported as REC, Relative
Effective Concentration, i.e. concentrations relative to Hoechst 33342,
whose value is arbitrarily assumed as 1, that are able to produce the sam
cleavage on the plasmid DNA in the presence of calf thymus topoisomerase
I. Cleavage is calculated from the intensity of the strongest Hoechst

Data set [2] relates to human lymphoblast RPMI 8402 cells. As to the kind of experiment: MTT cytotoxicity assay, RPMI 8402. The data set is classed as cell-based. To be noted: for IC50: Homo sapiens, RPMI 8402, 96 h, 4 days continuous drug exposure, read-out: Cytotoxicity IC50, RPMI. How it is done: (§1) The cytotoxicity was determined using the as MTT-microtiter plate tetrazolinium cytotoxicity assay (MTA) following the procedures of F. Denizot et al., J. Immunol. […] The cytotoxicity assay was performed using 96-well microtiter plates. Cells were grown in suspension at 37° C. in 5% CO2 and maintained by regular passage in RPMI medium supplemented with 10% heat inactivated fetal bovine serum, L-glutamine (2 mM), penicillin (100 U/ml), and streptomycin (0.1 mg/ml). For determination of IC50, cells were exposed continuously with varying concentrations of drug concentrations and MTT assays were performed at the end of the fourth day.
For orientation: Tetrazolium dyes change colour on reduction, which living cells bring about.

For data set [3], the system named is CPT-K5 cells (camptothecin-resistant variant of RPMI 8402). Put plainly: MTT cytotoxicity assay, camptothecin-resistant CPT-K5. It is filed as cell-based, human. To be noted: for Relative resistance (ratio of IC50 values of resistant versus drug sensitive cell line): CPT-K5 versus RPMI 8402, 5760 min; for IC50: Homo sapiens, CPT-K5, 96 h, read-out: Cytotoxicity IC50, CPT-K5. How it is done: as §1

The subject of data set [4] is KBV-1 cells (multidrug-resistant variant of KB3-1, overexpress MDR1). As to the kind of experiment: MTT cytotoxicity assay, multidrug-resistant KBV-1. The data set is classed as cell-based, human. As to conditions: for IC50: Homo sapiens, KB-V1, 96 h, read-out: Cytotoxicity IC50, KBV-1. The protocol: as §1
(§2) These cells were grown as monolayer cultures at in 5% CO2 and maintained by regular passage in Dulbecco's minimal essential medium supplemented with 10% heat inactivated fetal bovine serum. KBV-1 cells were similarly maintained except they were grown in the presence of 1 μg/ml vinblastine.

For data set [5], the system named is human ovarian tumor cell line, A2780. Put plainly: Cytotoxicity, ovarian tumor cell line A2780. The data set is classed as cell-based. The protocol: (§3) The cytotoxicity was determined using the as MTT-microtiter plate tetrazolinium cytotoxicity assay (MTA) following the procedures of F. Denizot et al., J. Immunol. Methods, 89, 271 (1986); J. Carmichael et al., Cancer Res., 47, 936 (1987) and T. J. Mosmann et al., Immunol. Methods, 65, 55 (1983). The human lymphoblast RPMI 8402 and its camptothecin-resistant variant cell line, CPT-K5 were provided by Dr. Toshiwo Andoh (Aichi Cancer Center Research Institute, Nagoya, Japan). See, for example, T. Andoh et al., Adv. Pharmacol., 29B, 93 (1994). The cytotoxicity assay was performed using 96-well microtiter plates. Cells were grown in suspension at 37° C. in 5% CO2 and maintained by regular passage in RPMI medium supplemented with 10% heat inactivated fetal bovine serum, L-glutamine (2 mM), penicillin (100 U/ml), and streptomycin (0.1 mg/ml). For determination of IC50, cells were exposed continuously with varying concentrations of drug concentrations and MTT assays were performed at the end of the fourth day.

Data set [6] has as its system CPT-2000, a variant of A2780. As to the kind of experiment: Cytotoxicity, camptothecin-resistant CPT-2000. It is filed as cell-based. To be noted: Homo sapiens. The protocol:
as §3

For data set [7], the system named is human MDR1 (P-glycoprotein). As to the kind of experiment: Substrate of human MDR1 (P-glycoprotein), from cytotoxicity in KB 3-1 and KB V-1 cells. It is filed as cell-based. To be noted: concluded from KB 3-1 / KB V-1 IC50 values. The protocol:
The drug sensitive human epidermoid carcinoma KB3-1 cell line (S. Aliyama et al., Somatic Cell Mol. Genet, 11, 117 (1985)) and its vinblastine-selected multidrug-resistant variant KBV-1 cells (D. W. Shen et al., Science, 32, 643 (1986)) were provided by Dr. Michael Gottesmann (National Cancer Institute, Bethesda, ML). These cells were grown as monolayer cultures at in 5% CO2 and maintained by regular passage in Dulbecco's minimal essential medium supplemented with 10% heat inactivated fetal bovine serum. KBV-1 cells were similarly maintained except they were grown in the presence of 1 μg/ml vinblastine.
The cytotoxic activity of Hoechst 33342 and 13 was also evaluated against KB 3-1 and KB V-1 cells. The primary difference between these cell lines is in the degree to which human MDR1 (P-glycoprotein) is expressed. […] Pharmacol., 245, 29B (1994).

Data set [8] has as its system human epidermoid carcinoma KB3-1 cell line. Put plainly: MTT cytotoxicity assay, KB3-1. It is filed as cell-based. To be noted: KB 3-1, 96 h, 4 days continuous drug exposure. The protocol:
as §1, §2

For data set [9] the test system is unchanged. As to conditions: previously reported; read-out: IC50 of Hoechst 33342 in KB 3-1 cells; cited from earlier work.
For data set [10], the system named is KBV-1 cells (multidrug-resistant variant of KB3-1, overexpress MDR1). As to conditions: cited from earlier work.
In another data set the test system is topoisomerase I. As to conditions: literature; cited from earlier work.
The conditions of data set [11]: cited from earlier work.
Where [12] appears, read: 4 days continuous drug exposure.

Turning to `c1ccc(-c2ccc3nc(-c4ccc5nc(-c6ccc7nc[nH]c7c6)[nH]c5c4)[nH]c3c2)cc1` [Compound 13, 5-Phenyl-2-[2'(benzimidazol-5"-yl)benzimidazol-5'-yl]benzimidazole], the “Potency as topoisomerase I inhibitor (in words)” value in [1] was “approximately one-half as potent as Hoechst 33342 as a topoisomerase I inhibitor”. For the same compound, in data set [2], the “Cytotoxicity towards RPMI 8402 (in words)” value is on record as “significant cytotoxicity”. In addition, the concentration for half-maximal inhibition (IC50) was 90 nM in [2]; 580 nM in data set [3]; 350 nM in data set [4]; 0.015 µg/mL (≈ 0.0352 µM) in data set [5]; 0.03 µg/mL (≈ 0.0703 µM) in data set [6]. In addition, the “Cytotoxicity against CPT-K5 cells (in words)” value in data set [3] is recorded as “effective against camptothecin-resistant CPT-K5 cells”. For the same compound, in [3], the “Relative resistance (ratio of IC50 values of resistant versus drug sensitive cell line)” value is given as “approximately 30 fold”. The “Difference of cytotoxicity between KB 3-1 and KB V-1 cells (in words)” value in data set [4] (KB 3-1 versus KB V-1) is given as “little difference between the IC50 values”. The “Substrate for human MDR1 (in words)” value in [7] was “appears not to be a substrate for human MDR1”.

With `CCOc1ccc(-c2nc3cc(-c4nc5cc(N6CCN(C)CC6)ccc5[nH]4)ccc3[nH]2)cc1` [Hoechst 33342, 2'-(4-ethoxyphenyl)-5-(4-methyl-1-piperazinyl)-2,5'-bi-1H-benzimidazole, reference compound], in data set [1], the “Topo I-mediated DNA cleavage (REC, Relative Effective Concentration)” value is given as 1. Besides, the IC50 in [2] was 30 nM; in data set [3] (setting [12]), 900 nM; in [8], 10 nM; in data set [4] (setting [12]) it was 1200 nM; in [9], roughly 9 nM. Besides, the “Cytotoxicity against CPT-K5 cells (in words)” value in data set [3] is “effective against camptothecin-resistant CPT-K5 cells”. Besides, the “Relative resistance (ratio of IC50 values of resistant versus drug sensitive cell line)” value in data set [3] was “approximately 30 fold”. The “Difference of IC50 between KB 3-1 and KB V-1 cells (in words)” value in data set [10] (as reported by A. Y. Chen et al., Adv. Pharmacol., 245, 29B (1994)) is given as “differs by approximately two-orders of magnitude”. In addition, the “less cytotoxic to KB V-1 cells than to KB 3-1 cells” value in data set [10] (previously reported, KB V-1 overexpress MDR1) is “approximately 130 fold”. Besides, the “Efficacy against tumor cell lines which overexpress MDR1 (in words)” value in [10] (previously reported) was “not effective against tumor cell lines which overexpress MDR1”. The “Inhibition of topoisomerase I (in words)” value in the data set on topoisomerase I was “is an inhibitor of topoisomerase I; also recorded: traps the reversible cleavable complex derived from DNA and topoisomerase I and produces a limited number of highly specific single-strand DNA breaks”. Further, in data set [11], the “Protonation at physiological pH (in words)” value is given as “extensively protonated at physiological pH”.

As a reminder, the IC50 is the concentration that gives 50% inhibition.
